From US12473304B2, “Heterocyclic PAD4 inhibitors” (BRISTOL-MYERS SQUIBB COMPANY, priority 2020, dated 2025)

Biological target: recombinant human PAD4 (Homo sapiens (Human), UniProt Q9UM07)
Assay: RFMS Human PAD4 Functional Assay 2
Type: biochemical
Settings: RFMS assay 2; 35 nM recombinant human PAD4, 500 μM TSTGGRQGSHH peptide, 2 mM CaCl2, room temperature 30 minutes; read-out: hPAD4 RFMS IC50
Method: RFMS Human PAD4 Functional Assay 2: Compound Preparation: • Stock compounds were dissolved and stored in 100% DMSO. Compound solutions were prepared via serial dilution at 3-fold intervals in DMSO with top compound concentration at 20 μM in each assay. 0.25 μl of compound solution was transferred from the compound plate to the assay plate by using an acoustic dispenser. Final Assay Conditions: • Total reaction volume: 25 μl • Assay buffer: […] pH 7.4, 200 mM NaCl, 2 mM CaCl2, 5 mM DTT • 35 nM recombinant human PAD4 • 500 μM TSTGGRQGSHH peptide • […] DMSO • Stop solution: 10% formic acid
Reaction mixtures were incubated at room temperature for 30 minutes. 10 μl each of the reaction mixtures was then mixed with 40 μl of 10% formic acid in a microtiter plate. The plate was frozen at −80° C. before shipping out on dry ice for RapidFire mass spectroscopy analysis.
Thawed samples were loaded onto the Rapid Fire 300 system (Agilent) wherein they were first sipped for 250 ms and then loaded onto an Agilent “C” (C18) cartridge using a mobile phase of water containing 0.09% formic acid/0.01% trifluoroacetic acid for 3000 ms desalting flowing at a rate of 1.5 ml/min. Once the samples were loaded and washed, a mobile phase of acetonitrile containing 0.09% formic acid/0.01% trifluoroacetic acid was used to elute the samples directly onto a Sciex API4000 triple quadrupole mass spectrometer for 3000 ms at a flow rate of 1.25 ml/min.
MRM transitions for substrate and product were monitored in positive ESI mode at m/z=562.3/969.7 and m/z=562.8/541.3 respectively. The dwell time for each transition was set at 100 ms, and the ESI voltage was used at 5500 with a source temperature of 650° C. Extracted ion peaks for each transition were integrated using the Rapid Fire Integrator software.

Chain of recombinant human PAD4 (Q9UM07 whole entry): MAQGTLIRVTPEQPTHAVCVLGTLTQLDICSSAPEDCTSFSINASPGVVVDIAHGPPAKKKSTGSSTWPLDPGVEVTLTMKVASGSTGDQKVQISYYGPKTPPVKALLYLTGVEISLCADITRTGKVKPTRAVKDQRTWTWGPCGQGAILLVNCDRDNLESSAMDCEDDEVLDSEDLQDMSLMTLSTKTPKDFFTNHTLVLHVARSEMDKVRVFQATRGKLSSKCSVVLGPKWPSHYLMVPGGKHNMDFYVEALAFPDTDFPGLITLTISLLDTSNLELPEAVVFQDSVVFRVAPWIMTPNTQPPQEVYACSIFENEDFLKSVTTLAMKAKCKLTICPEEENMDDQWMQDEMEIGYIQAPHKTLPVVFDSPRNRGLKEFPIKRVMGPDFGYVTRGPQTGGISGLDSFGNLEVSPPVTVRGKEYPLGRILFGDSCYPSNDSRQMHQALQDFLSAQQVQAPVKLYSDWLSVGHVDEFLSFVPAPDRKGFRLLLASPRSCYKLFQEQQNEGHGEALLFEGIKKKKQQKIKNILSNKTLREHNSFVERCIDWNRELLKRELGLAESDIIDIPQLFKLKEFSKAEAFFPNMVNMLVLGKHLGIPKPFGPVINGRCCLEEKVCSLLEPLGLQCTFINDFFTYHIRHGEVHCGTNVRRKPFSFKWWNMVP

| IC50 [nM] | Structure (SMILES) |
| --- | --- |
| 288 | COc1cc(C(=O)N2C[C@H](N)C[C@@H](F)C2)cc2oc(-c3cc4ccccc4n3CC3CC3)c(CCO)c12 [Example 630, ((3R,5R)-3-amino-5-fluoropiperidin-1-yl)(2-(1-(cyclopropylmethyl)-1H-indol-2-yl)-3-(2-hydroxyethyl)-4-methoxybenzofuran-6-yl)methanone] |
| 7580 | CN[C@@H]1C[C@@H](F)CN(C(=O)c2cc(OC)c3c(CCO)c(-c4cc5ccccc5n4CC4CC4)oc3c2)C1 [Example 631, (2-(1-(cyclopropylmethyl)-1H-indol-2-yl)-3-(2-hydroxyethyl)-4-methoxybenzofuran-6-yl)((3R,5R)-3-fluoro-5-(methylamino)piperidin-1-yl)methanone] |
| 327 | COc1cc(C(=O)N2C[C@H](N)C[C@@H](F)C2)cc2oc(-c3cc4cccc(OC)c4n3CC3CC3)c(CCO)c12 [Example 632, ((3R,5R)-3-amino-5-fluoropiperidin-1-yl)(2-(1-(cyclopropylmethyl)-7-methoxy-1H-indol-2-yl)-3-(2-hydroxyethyl)-4-methoxybenzofuran-6-yl)methanone] |
| 179 | COc1cc(C(=O)N2C[C@H](N)C[C@@H](F)C2)cc2oc(-c3cc4cccc(OCC5CNC(=O)C5)c4n3CC3CC3)c(CCO)c12 (stereo partly drawn) [Example 633, 4-(((2-(6-((3R,5R)-3-amino-5-fluoropiperidine-1-carbonyl)-3-(2-hydroxyethyl)-4-methoxybenzofuran-2-yl)-1-(cyclopropylmethyl)-1H-indol-7-yl)oxy)methyl)pyrrolidin-2-one] |
| 209 | COc1cc(C(=O)N2C[C@H](N)C[C@@H](F)C2)cc2oc(-c3cc4cccc(OCCO)c4n3CC3CC3)c(CCO)c12 [Example 634, ((3R,5R)-3-amino-5-fluoropiperidin-1-yl)(2-(1-(cyclopropylmethyl)-7-(2-hydroxyethoxy)-1H-indol-2-yl)-3-(2-hydroxyethyl)-4-methoxybenzofuran-6-yl)methanone] |
| 216 | COc1cc(C(=O)N2C[C@H](N)C[C@@H](F)C2)cc2oc(-c3cc4cccc(OCCn5cncn5)c4n3CC3CC3)c(CCO)c12 [Example 635, (2-(7-(2-(1H-1,2,4-triazol-1-yl)ethoxy)-1-(cyclopropylmethyl)-1H-indol-2-yl)-3-(2-hydroxyethyl)-4-methoxybenzofuran-6-yl)((3R,5R)-3-amino-5-fluoropiperidin-1-yl)methanone] |
| 277 | COc1cc(C(=O)N2C[C@H](N)C[C@@H](F)C2)cc2oc(-c3cc4cccc(OCC5CNC5)c4n3CC3CC3)c(CCO)c12 [Example 636, ((3R,5R)-3-amino-5-fluoropiperidin-1-yl)(2-(7-(azetidin-3-ylmethoxy)-1-(cyclopropylmethyl)-1H-indol-2-yl)-3-(2-hydroxyethyl)-4-methoxybenzofuran-6-yl)methanone] |
| 621 | COc1cc(C(=O)N2C[C@H](N)C[C@@H](F)C2)cc2oc(-c3cc4cccc(OCC5CN(C)C5)c4n3CC3CC3)c(CCO)c12 [Example 637, ((3R,5R)-3-amino-5-fluoropiperidin-1-yl)(2-(1-(cyclopropylmethyl)-7-((1-methylazetidin-3-yl)methoxy)-1H-indol-2-yl)-3-(2-hydroxyethyl)-4-methoxybenzofuran-6-yl)methanone] |
| 295 | COc1cc(C(=O)N2C[C@H](N)C[C@@H](F)C2)cc2oc(-c3cc4cccc(OCC5COC5)c4n3CC3CC3)c(CCO)c12 [Example 638, ((3R,5R)-3-amino-5-fluoropiperidin-1-yl)(2-(1-(cyclopropylmethyl)-7-(oxetan-3-ylmethoxy)-1H-indol-2-yl)-3-(2-hydroxyethyl)-4-methoxybenzofuran-6-yl)methanone] |
| 243 | COc1cc(C(=O)N2C[C@H](N)C[C@@H](F)C2)cc2oc(-c3cc4cccc(OCc5ncno5)c4n3CC3CC3)c(CCO)c12 [Example 639, (2-(7-((1,2,4-oxadiazol-5-yl)methoxy)-1-(cyclopropylmethyl)-1H-indol-2-yl)-3-(2-hydroxyethyl)-4-methoxybenzofuran-6-yl)((3R,5R)-3-amino-5-fluoropiperidin-1-yl)methanone] |
